This is an account of results in patent US8288363B2, “Medicaments for anti-herpes virus treatments” (ASE & BIO, priority 2006, dated 2012).

One assay has as its system factor Xa. Kind of assay: HEPTEST coagulation test. Type of assay: biochemical. Conditions: in contrast to heparin. The protocol: For this, the anticoagulant activity of the laminarin sulphate PS3 obtained in Example 1 was determined as a function of its concentration in comparison with that of heparin in the conventional coagulation, APTT or “activated partial thromboplastin time” tests, the prothombin time test, the so-called “HEPTEST” test and the thrombin time test. The APTT reflects an interaction with the intrinsic coagulation system, while the prothrombin time reflects an interaction with the extrinsic coagulation; the so-called “HEPTEST” test is the conventional test for measurement of the inhibitory activity of heparin with respect to factor Xa, and the thrombin time corresponds to the last stage of coagulation, that is to say the formation of fibrins induced by thrombin. […] The specific activity (IU/mg) in the APTT represents 30% of the heparin activity, and in the case of the thrombin time 60%. To prevent coagulation totally, it was necessary to apply a concentration 4 times higher in the case of the APTT and a concentration 20 times higher in the case of the thrombin time.

In a further assay the test system is HSV-2. Kind of assay: Action on the viral adsorption (treatments A, B, C). The format is cell-based, herpes simplex virus 2. Particulars: treatment C (present during and after infection), 72 hours. The protocol:
(§1) To determine whether PS3 has an effect on the viral adsorption, the procedure was as follows.
(§2) Vero cells were seeded at a cell density of 3.5·10^4 cells/well of a 96-well microtitre plate in 100 μl of MEM medium containing 8% FCS 24 hours before the test. The viral suspensions of HSV-1, HSV-1R, HSV-2 and HSV-2R, defined by an MOI of 0.01 ID50/cell for a cell concentration of 350,000 cells/ml, were tested.
(§3) On the day of the test, the cells were subjected to three different treatments designated A, B and C.
(§4) According to treatment A, cells treated with 50 μl of PS3 or comparison product (acyclovir) of a given concentration were infected with 50 μl of one of the viral suspensions identified above for one hour at 4° C.
(§5) The infected cells were then washed with 100 μl of saline buffer in order to remove the PS3 or the reference product as well as the viral particles which had not been adsorbed by the cells.
(§6) After having filled each well with sufficient MEM medium containing 8% FCS to arrive at a volume of 200 μl, the cells were then placed in an oven at 37° C. for 72 hours. […]
(§7) For these 3 treatments, the inhibitory effect of PS3 and of the reference product (expressed in EC50) on the adsorption of the four abovementioned viral strains after 72 hours was evaluated by measurement of the EC50 values in accordance with the method described in Example 3.

The test system of a further assay is HSV-2R. Described as above. The format is cell-based, herpes simplex virus 2. Particulars: treatment C (present during and after infection), 72 hours. The protocol:
as §1, §2, §3, §4, §5, §6, §7

One may read the EC50 as the concentration at which the effect is half-maximal.

As for sulphated laminarin [PS3], the “Activity in the HEPTEST test compared with heparin” value with factor Xa is listed as “more than 20 times weaker”. The results for the EC50 in the assay with HSV-2 and with HSV-2R were 0.24 µg/mL and 0.30 µg/mL, respectively.
